{"source": "patent US7153869B2", "about": "“Substituted amino acids as erythropoietin mimetics” (priority 1998, dated 2006)", "target": "T1, EBP-Ig (N-terminal 225 amino acids of the human EPO receptor joined to an Ig heavy chain) (Homo sapiens, UniProt P19235)", "T1 construct": "Ig heavy chain (fusion partner); made in house; host or cells: NSO cells (secreted into conditioned media)", "T1 sequence (P19235 25-250 limits assumed)": "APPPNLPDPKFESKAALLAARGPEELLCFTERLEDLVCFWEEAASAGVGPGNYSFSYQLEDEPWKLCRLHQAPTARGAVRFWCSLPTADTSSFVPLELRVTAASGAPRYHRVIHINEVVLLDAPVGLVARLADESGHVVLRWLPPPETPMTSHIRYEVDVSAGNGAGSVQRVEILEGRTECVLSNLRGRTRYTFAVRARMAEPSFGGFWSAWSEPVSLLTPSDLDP", "assay": "Inhibition of [125I]EPO binding to immobilized EBP-Ig (EPO binding protein-Ig), scintillation Flash plate competition assay", "conditions": "for IC30 μM (Inhibition of EPO binding to EBP-Ig): 0–500 μM test compound; for % inh @ 50 μM (Inhibition of EPO binding to EBP-Ig): 50 μM test compound, average % inhibition", "from_the_text": "The interaction of biotin and streptavidin is frequently employed to capture and effectively immobilize reagents useful in assay protocols and has been employed here as a simple method to capture and immobilize EBP-Ig. EBP-Ig is initially randomly modified with an amine reactive derivative of biotin to produce biotinylated-EBP-Ig. Use of streptavidin coated plates allows the capture of the biotinylated EBP-Ig on the surface of a scintillant impregnated coated well (Flash plates, NEN-DuPont). […] The amount of light produced was quantified to estimate the amount of ligand binding. The specific assay format was suitable for the multi-well plate capacity of a Packard TopCount Microplate Scintillation counter.\nBiotinylated EBP-Ig was prepared as follows. EBP-Ig (3 mL, OD280 2.9) was exchanged into 50 mM sodium bicarbonate, pH 8.5 using a Centriprep 10 ultrafiltration device. The final volume of the exchanged protein was 1.2 mL (OD280 2.6, representing about 2 mg total protein). 10 μL of a 4 mg/ml solution of NHS-LC-Biotin (Pierce) was added and the reaction mixture placed on ice in the dark for two hours. Unreacted biotin was removed by exchange of the reaction buffer into PBS in a Centriprep 10 device and the protein reagent aliquoted and stored at −70° C.\nAll wells were adjusted to a final DMSO concentration of 5%. […] After all additions were made, the plate was covered with an adhesive top seal and placed in the dark at room temperature overnight. The next day all liquid was aspirated from the wells to limit analyte dependent quench of the signal, and the plates were counted on a Packard TOPCOUNT Microplate Scintillation Counter. […] Corrected total binding (CTB) was calculated as: TB−NSB=CTB. […] Table 1 lists the average % inhibition, and if determined the IC50 and IC30 values for compounds of Formula I, where the compound numbers refer to the compounds in the tables accompanying the preparative examples.", "key": {"[1]": {"conditions": "read-out: % inh @ 50 μM (Inhibition of EPO binding to EBP-Ig)"}, "[2]": {"conditions": "read-out: EPO/EBP-Ig % inh @ 50 μM, Table 11, 50 μM"}, "[3]": {"conditions": "read-out: IC50, μM (Inhibition of EPO binding to EBP-Ig), 0.5 nM [125I]EPO, concentration reducing corrected total binding to 50%"}}, "note": "Like-named read-outs stand apart in the source and are kept apart here."}
{"smiles": "O=C(O)C(F)(F)F.O=C(O)[C@H](CO)N(C/C=C/c1cccc(Oc2ccc(Cl)c(Cl)c2)c1)C/C=C/c1cccc(Oc2ccc(Cl)c(Cl)c2)c1", "note": "[compound 307]", "values": [{"measurement": "EPO/EBP-Ig % inh @ 50 μM", "setting": "50 μM compound, Table 16A", "value": 25, "unit": "%"}]}
{"smiles": "O=C(O)CC(C(=O)NCCCOCCCCOCCCNC(=O)C(CC(=O)O)N(Cc1ccc(OCc2ccccc2)cc1)Cc1ccc(OCc2ccccc2)cc1)N(Cc1ccc(OCc2ccccc2)cc1)Cc1ccc(OCc2ccccc2)cc1", "note": "(stereo not shown) [compound 243]", "values": [{"measurement": "IC50", "value": 18, "unit": "µM"}, {"measurement": "IC30 μM (Inhibition of EPO binding to EBP-Ig)", "setting": "0.5 nM [125I]EPO", "value": 2, "unit": "µM"}, {"measurement": "inhibition at 50 µM", "setting": "[1]", "value": 75, "unit": "%"}, {"measurement": "inhibition at 50 µM", "setting": "[2]", "value": 75, "unit": "%"}]}
{"smiles": "COC(=O)C(CCCCN)N(Cc1cccc(OCc2ccccc2)c1)Cc1cccc(OCc2ccccc2)c1", "note": "(stereo not shown) [compound 112]", "values": [{"measurement": "IC30 μM (Inhibition of EPO binding to EBP-Ig)", "setting": "0.5 nM [125I]EPO", "value": 2, "unit": "µM"}, {"measurement": "% inh @ 50 μM (Inhibition of EPO binding to EBP-Ig)", "setting": "0.5 nM [125I]EPO", "value": 59, "unit": "%"}, {"measurement": "EPO/EBP-Ig % inh @ 50 μM", "setting": "Table 7, 50 μM", "value": 59, "unit": "%"}, {"measurement": "IC50", "setting": "[3]", "value": 10, "unit": "µM"}]}
{"smiles": "NCCCCC(C(=O)NCc1ccc(OCC=Cc2ccccc2)cc1)N(CC=Cc1ccccc1)CC=Cc1ccccc1", "note": "(stereo not shown) [compound 220]", "values": [{"measurement": "IC30 μM (Inhibition of EPO binding to EBP-Ig)", "setting": "0.5 nM [125I]EPO", "value": 30, "unit": "µM"}, {"measurement": "EPO/EBP-Ig % inh @ 50 μM", "setting": "50 μM compound, Table 10", "value": 45, "unit": "%"}, {"measurement": "% inh @ 50 μM (Inhibition of EPO binding to EBP-Ig)", "setting": "0.5 nM [125I]EPO", "value": 45, "unit": "%"}, {"measurement": "IC50", "setting": "[3]", "value": 50, "unit": "µM"}]}
{"smiles": "CC(C)(C)c1ccc(Oc2cccc(/C=C/CN[C@@H](CO)C(=O)O)c2)cc1.O=C(O)C(F)(F)F", "note": "[compound 351]", "values": [{"measurement": "EPO/EBP-Ig % inh @ 50 μM", "setting": "50 μM compound, Table 20A", "value": 29, "unit": "%"}]}
{"smiles": "O=C(O)CCC(=O)NCCCCC(C(=O)NCCCCCCCCCCCCNC(=O)C(CCCCNC(=O)CCC(=O)O)N(Cc1ccc(OCc2ccccc2)cc1)Cc1ccc(OCc2ccccc2)cc1)N(Cc1ccc(OCc2ccccc2)cc1)Cc1ccc(OCc2ccccc2)cc1", "note": "(stereo not shown) [compound 270]", "values": [{"measurement": "IC30 μM (Inhibition of EPO binding to EBP-Ig)", "setting": "0.5 nM [125I]EPO", "value": 7, "unit": "µM"}, {"measurement": "EPO/EBP-Ig % inh @ 50 μM", "setting": "50 μM compound, Table 13", "value": 56, "unit": "%"}, {"measurement": "% inh @ 50 μM (Inhibition of EPO binding to EBP-Ig)", "setting": "0.5 nM [125I]EPO", "value": 56, "unit": "%"}, {"measurement": "IC50", "setting": "[3]", "value": 100, "unit": "µM"}]}
{"smiles": "CC(=O)O.COC(=O)CC(NCC=Cc1cccc(C(=O)OC)c1)C(=O)OC", "note": "(stereo not shown) [compound 366]", "values": [{"measurement": "IC30 μM (Inhibition of EPO binding to EBP-Ig)", "setting": "0.5 nM [125I]EPO", "value": 65, "unit": "µM"}, {"measurement": "EPO/EBP-Ig % inh @ 50 μM", "setting": "50 μM compound", "value": 38, "unit": "%"}, {"measurement": "% inh @ 50 μM (Inhibition of EPO binding to EBP-Ig)", "setting": "0.5 nM [125I]EPO", "value": 38, "unit": "%"}]}
{"smiles": "CC(=O)O.COC(=O)c1cccc(C=CCNC(CSCc2ccccc2)C(=O)OC)c1", "note": "(stereo not shown) [compound 368]", "values": [{"measurement": "IC30 μM (Inhibition of EPO binding to EBP-Ig)", "setting": "0.5 nM [125I]EPO", "value": 90, "unit": "µM"}, {"measurement": "EPO/EBP-Ig % inh @ 50 μM", "setting": "50 μM compound", "value": 40, "unit": "%"}, {"measurement": "% inh @ 50 μM (Inhibition of EPO binding to EBP-Ig)", "setting": "0.5 nM [125I]EPO", "value": 40, "unit": "%"}]}
{"smiles": "CC(C)(C)OC(=O)CC[C@H](NC/C=C/c1cccc(Oc2ccc(Cl)c(Cl)c2)c1)C(=O)O", "note": "[compound 341]", "values": [{"measurement": "EPO/EBP-Ig % inh @ 50 μM", "setting": "50 μM compound, Table 19A", "value": 19, "unit": "%"}]}
{"smiles": "Cc1ccc(Oc2cccc(CN(Cc3cccc(NCc4cccc(Cl)c4)c3)C(CC(=O)O)C(=O)O)c2)cc1", "note": "(stereo not shown) [compound 71]", "values": [{"measurement": "EPO/EBP-Ig % inh @ 50 μM", "setting": "Table 4, 50 μM", "value": "−6", "unit": "%"}]}
{"smiles": "COC(=O)[C@H](CCC(=O)OC(C)(C)C)NC/C=C/c1ccc2ccccc2c1", "note": "[compound 333]", "values": [{"measurement": "EPO/EBP-Ig % inh @ 50 μM", "setting": "50 μM compound, Table 19A", "value": 16, "unit": "%"}]}
{"smiles": "O=C(O)CC(C(=O)NCCCOCCOCCOCCCNC(=O)C(CC(=O)O)N(Cc1ccc(OCc2ccccc2)cc1)Cc1ccc(OCc2ccccc2)cc1)N(Cc1ccc(OCc2ccccc2)cc1)Cc1ccc(OCc2ccccc2)cc1", "note": "(stereo not shown) [compound 244]", "values": [{"measurement": "IC50", "value": 28, "unit": "µM"}, {"measurement": "IC30 μM (Inhibition of EPO binding to EBP-Ig)", "setting": "0.5 nM [125I]EPO", "value": 1, "unit": "µM"}, {"measurement": "inhibition at 50 µM", "setting": "[1]", "value": 66, "unit": "%"}, {"measurement": "inhibition at 50 µM", "setting": "[2]", "value": 66, "unit": "%"}]}
{"smiles": "Cc1ccc(Oc2cccc(CN(Cc3cccc(NCc4c(F)c(F)c(F)c(F)c4F)c3)C(CC(=O)O)C(=O)O)c2)cc1", "note": "(stereo not shown) [compound 72]", "values": [{"measurement": "EPO/EBP-Ig % inh @ 50 μM", "setting": "Table 4, 50 μM", "value": "−14", "unit": "%"}]}
{"smiles": "COC(=O)C(CCC(=O)OC(C)(C)C)N(CC=Cc1cccc(Oc2ccccc2)c1)CC=Cc1cccc(Oc2ccccc2)c1", "note": "(stereo not shown) [cpd 96, N,N-bis(3-Phenoxycinnamyl)Glu(O-t-Bu)-OMe]", "values": [{"measurement": "EPO/EBP-Ig % inh @ 50 μM", "setting": "Table 6, 50 μM", "value": "−5", "unit": "%"}]}
{"smiles": "O=C(NCCCCC(C(=O)O)N(C/C=C/c1ccccc1)C/C=C/c1ccccc1)OCc1ccccc1", "note": "(stereo not shown) [compound 172]", "values": [{"measurement": "EPO/EBP-Ig % inh @ 50 μM", "setting": "50 μM compound, Table 9", "value": 15, "unit": "%"}]}
{"smiles": "O=C(O)CCCC(=O)Nc1ccc(/C=C/CN(Cc2ccc(OCc3ccccc3)cc2)C(CCC(=O)O)C(=O)O)cc1", "note": "(stereo not shown) [compound 83]", "values": [{"measurement": "EPO/EBP-Ig % inh @ 50 μM", "setting": "Table 5, 50 μM", "value": 18, "unit": "%"}]}
{"smiles": "O=C(O)[C@H](CO)N(C/C=C/c1cccc(Oc2ccccc2)c1)C/C=C/c1cccc(Oc2ccccc2)c1", "note": "[cpd 300, N,N-Bis(3-phenoxycinnamyl)Ser-OH]", "values": [{"measurement": "IC50", "value": 145, "unit": "µM"}, {"measurement": "IC30 μM (Inhibition of EPO binding to EBP-Ig)", "setting": "0.5 nM [125I]EPO", "value": 35, "unit": "µM"}, {"measurement": "inhibition at 50 µM", "setting": "[1]", "value": 57, "unit": "%"}, {"measurement": "inhibition at 50 µM", "setting": "read-out: EPO/EBP-Ig % inh @ 50 μM, 50 μM compound, Table 16A", "value": 57, "unit": "%"}]}
{"smiles": "CC(C)(C)OC(=O)CC[C@H](NC/C=C/c1ccc(-c2ccccc2)cc1)C(=O)O", "note": "[compound 340]", "values": [{"measurement": "EPO/EBP-Ig % inh @ 50 μM", "setting": "50 μM compound, Table 19A", "value": 14, "unit": "%"}]}
